Laboratory results reported in patent publication US20250171430A1, “PYRAZOLYL COMPOUNDS AS KV7 CHANNEL ACTIVATORS” (Biohaven Therapeutics Ltd., priority 2022, published 2025).

molecular target: T1, Kv7.2/7.3 (Homo sapiens, UniProt O43525+O43526); assay: Kv7.2/7.3 Activation Assay (Thallium Flux Assay); format: cell-based; conditions: hKV7.2/7.3 cell line; test compound at single concentration of 10 μM; fluorescence at 90 sec normalized to positive control (retigabine, 30 μM)
T1 construct: Kv7.2 tetracycline-induced, Kv7.3 constitutive
In short: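 Human Kv7.2/7.3 cells with Kv7.2 induced overnight by 10 ng/mL tetracycline were loaded with FluxOR II Green for 1 h at 37 °C. Compounds were tested at 10 μM in 0.1% DMSO/extracellular solution, pH 7.4. Thallium/potassium stimulus was added after a 15 s baseline, and 90 s fluorescence (ex 475/em 530 nm) was normalized to 30 μM retigabine.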

SMILES	Kv7.2/7.3 Activity
Cn1nc(NC(=O)C2(C(F)(F)F)CC2)c(C2CCC2)c1-c1ccc(F)cc1 [Compound 126, N-(4-cyclobutyl-5-(4-fluorophenyl)-1-methyl-1H-pyrazol-3-yl)-1-(trifluoromethyl)cyclopropane-1-carboxamide]	++ (“++” High Activity ≥ 0.7)
C[C@H](C(=O)Nc1nn(C)c(-c2cc(F)cc(F)c2)c1C1CCC1)C1CC(F)(F)C1 [Compound 268, (S)-N-(4-cyclobutyl-5-(3,5-difluorophenyl)-1-methyl-1H-pyrazol-3-yl)-2-(3,3-difluorocyclobutyl)propanamide]	+ (“+” Moderate Activity 0.15-0.7)
CCn1nc(NC(=O)Cc2cc(F)cc(F)c2)c(C2CC2)c1C [Compound 3, N-(4-cyclopropyl-1-ethyl-5-methyl-1H-pyrazol-3-yl)-2-(3,5-difluorophenyl)acetamide]	++ (“++” High Activity ≥ 0.7)
Cn1nc(NC(=O)[C@@H]2CC2(F)F)c(C2CCC2)c1-c1ccccc1F [Compound 162, (S)-N-(4-cyclobutyl-5-(2-fluorophenyl)-1-methyl-1H-pyrazol-3-yl)-2,2-difluorocyclopropane-1-carboxamide]	+ (“+” Moderate Activity 0.15-0.7)
C[C@H](C(=O)Nc1nn(C)c(-c2ccc(F)cc2)c1C1CCC1)C1(C(F)(F)F)CC1 [Compound 127, (S)-N-(4-cyclobutyl-5-(4-fluorophenyl)-1-methyl-1H-pyrazol-3-yl)-2-(1-(trifluoromethyl)cyclopropyl)propanamide]	++ (“++” High Activity ≥ 0.7)
Cn1nc(NC(=O)C[C@H]2CC(F)(F)C2(F)F)c(C2CCC2)c1-c1ccc(F)cc1 [Compound 21, (S)-N-(4-cyclobutyl-5-(4-fluorophenyl)-1-methyl-1H-pyrazol-3-yl)-2-(2,2,3,3-tetrafluorocyclobutyl)acetamide]	++ (“++” High Activity ≥ 0.7)
Cn1nc(NC(=O)C2(C(F)(F)F)CC2)c(C2CCC2)c1-c1ccc(Cl)s1 [Compound 153, N-(5-(5-chlorothiophen-2-yl)-4-cyclobutyl-1-methyl-1H-pyrazol-3-yl)-1-(trifluoromethyl)cyclopropane-1-carboxamide]	++ (“++” High Activity ≥ 0.7)
Cn1nc(NC(=O)CC2(C(F)(F)F)CCC2)c(C2CCC2)c1-c1ccc(F)cc1 [Compound 83, N-(4-cyclobutyl-5-(4-fluorophenyl)-1-methyl-1H-pyrazol-3-yl)-2-(1-(trifluoromethyl)cyclobutyl)acetamide]	++ (“++” High Activity ≥ 0.7)
Cn1nc(NC(=O)CC(C)(C)C(F)(F)F)c(C2CCC2)c1-c1cnc(C(F)(F)F)s1 [Compound 49, N-(4-cyclobutyl-1-methyl-5-(2-(trifluoromethyl)thiazol-5-yl)-1H-pyrazol-3-yl)-4,4,4-trifluoro-3,3-dimethylbutanamide]	+ (“+” Moderate Activity 0.15-0.7)
Cn1nc(NC(=O)CC(C)(O)c2ccc(F)cc2F)c(C2CCC2)c1-c1ccc(OC(F)(F)F)cc1 (centres unmarked) [Compound 176, N-(4-cyclobutyl-1-methyl-5-(4-(trifluoromethoxy)phenyl)-1H-pyrazol-3-yl)-3-(2,4-difluorophenyl)-3-hydroxybutanamide]	++ (“++” High Activity ≥ 0.7)
CC(C)CC1(C(=O)Nc2nn(C)c(-c3ccc(F)cc3)c2C2CCC2)CC1 [Compound 138, N-(4-cyclobutyl-5-(4-fluorophenyl)-1-methyl-1H-pyrazol-3-yl)-1-isobutylcyclopropane-1-carboxamide]	++ (“++” High Activity ≥ 0.7)
Cn1nc(NC(=O)[C@@H]2CC2(F)F)c(C2CCC2)c1-c1cccc(F)c1 [Compound 167, (S)-N-(4-cyclobutyl-5-(3-fluorophenyl)-1-methyl-1H-pyrazol-3-yl)-2,2-difluorocyclopropane-1-carboxamide]	+ (“+” Moderate Activity 0.15-0.7)
Cn1nc(NC(=O)C[C@@H]2CC(F)(F)C2(F)F)c(C2CCC2)c1-c1cc(F)cc(F)c1 [Compound 256, (R)-N-(4-cyclobutyl-5-(3,5-difluorophenyl)-1-methyl-1H-pyrazol-3-yl)-2-(2,2,3,3-tetrafluorocyclobutyl)acetamide]	++ (“++” High Activity ≥ 0.7)
Cn1nc(NC(=O)CC2(O)CCCC2)c(C2CCC2)c1-c1ccc(OC(F)(F)F)cc1 [Compound 71, N-(4-cyclobutyl-1-methyl-5-(4-(trifluoromethoxy)phenyl)-1H-pyrazol-3-yl)-2-(1-hydroxycyclopentyl)acetamide]	++ (“++” High Activity ≥ 0.7)
Cn1nc(NC(=O)C2(C3CC3)CC2)c(C2CCC2)c1-c1ccc(F)cc1 [Compound 137, N-(4-cyclobutyl-5-(4-fluorophenyl)-1-methyl-1H-pyrazol-3-yl)-[1,1'-bi(cyclopropane)]-1-carboxamide]	++ (“++” High Activity ≥ 0.7)
CCn1nc(NC(=O)CC(C)(C)O)c(C2CC2)c1C [Compound 4, N-(4-cyclopropyl-1-ethyl-5-methyl-1H-pyrazol-3-yl)-3-hydroxy-3-methylbutanamide]	− (“−” No Activity < 0.15)
Cn1nc(NC(=O)C2CC(F)(F)C2)c(C2CCC2)c1-c1ccc(OC(F)F)nc1 [Compound 272, N-(4-cyclobutyl-5-(6-(difluoromethoxy)pyridin-3-yl)-1-methyl-1H-pyrazol-3-yl)-3,3-difluorocyclobutane-1-carboxamide]	+ (“+” Moderate Activity 0.15-0.7)
Cn1nc(NC(=O)C2CC(C)(C)C2)c(C2CCC2)c1-c1ccc(OC(F)(F)F)cc1 [Compound 185, N-(4-cyclobutyl-1-methyl-5-(4-(trifluoromethoxy)phenyl)-1H-pyrazol-3-yl)-3,3-dimethylcyclobutane-1-carboxamide]	++ (“++” High Activity ≥ 0.7)
Cn1nc(NC(=O)[C@H]2C[C@](C)(F)C2)c(C2CCC2)c1-c1cnc(C(F)(F)F)s1 [Compound 203, (1r,3r)-N-(4-cyclobutyl-1-methyl-5-(2-(trifluoromethyl)thiazol-5-yl)-1H-pyrazol-3-yl)-3-fluoro-3-methylcyclobutane-1-carboxamide]	+ (“+” Moderate Activity 0.15-0.7)
C[C@@H](C(=O)Nc1nn(C)c(-c2ccc(OC(F)(F)F)cc2)c1C1CCC1)C1CC(F)(F)C1 [Compound 178, (R)-N-(4-cyclobutyl-1-methyl-5-(4-(trifluoromethoxy)phenyl)-1H-pyrazol-3-yl)-2-(3,3-difluorocyclobutyl)propanamide]	− (“−” No Activity < 0.15)
Cn1nc(NC(=O)C[C@@H]2CC(F)(F)C2(F)F)c(C2CCC2)c1-c1ccc(OC(F)(F)F)cc1 [Compound 30, (R)-N-(4-cyclobutyl-1-methyl-5-(4-(trifluoromethoxy)phenyl)-1H-pyrazol-3-yl)-2-(2,2,3,3-tetrafluorocyclobutyl)acetamide]	++ (“++” High Activity ≥ 0.7)
Cn1nc(NC(=O)C[C@@H]2CC(F)(F)C2(F)F)c(C2CCC2)c1Cc1ccccc1 [Compound 15, (R)-N-(5-benzyl-4-cyclobutyl-1-methyl-1H-pyrazol-3-yl)-2-(2,2,3,3-tetrafluorocyclobutyl)acetamide]	++ (“++” High Activity ≥ 0.7)
Cn1nc(NC(=O)[C@H]2C[C@H]2F)c(C2CCC2)c1-c1ccc(F)cc1 [Compound 206, (1R,2R)-N-(4-cyclobutyl-5-(4-fluorophenyl)-1-methyl-1H-pyrazol-3-yl)-2-fluorocyclopropane-1-carboxamide]	+ (“+” Moderate Activity 0.15-0.7)
Cn1nc(NC(=O)C2(C(F)(F)F)CC2)c(C2CCC2)c1C1CC(F)(F)C1 [Compound 158, N-(4-cyclobutyl-5-(3,3-difluorocyclobutyl)-1-methyl-1H-pyrazol-3-yl)-1-(trifluoromethyl)cyclopropane-1-carboxamide]	++ (“++” High Activity ≥ 0.7)
Cn1nc(NC(=O)C2(C)CC2)c(C2CCC2)c1-c1ccc(Cl)s1 [Compound 152, N-(5-(5-chlorothiophen-2-yl)-4-cyclobutyl-1-methyl-1H-pyrazol-3-yl)-1-methylcyclopropane-1-carboxamide]	++ (“++” High Activity ≥ 0.7)
C[C@H](C(=O)Nc1nn(C)c(-c2ccc(F)cc2)c1C1CCC1)C(C)(C)C [Compound 113, (S)-N-(4-cyclobutyl-5-(4-fluorophenyl)-1-methyl-1H-pyrazol-3-yl)-2,3,3-trimethylbutanamide]	++ (“++” High Activity ≥ 0.7)
Cn1nc(NC(=O)COC(C)(C)C)c(C2CCC2)c1-c1ccc(F)cc1 [Compound 108, 2-(tert-butoxy)-N-(4-cyclobutyl-5-(4-fluorophenyl)-1-methyl-1H-pyrazol-3-yl)acetamide]	+ (“+” Moderate Activity 0.15-0.7)
Cn1nc(NC(=O)[C@H]2CC2(C)C)c(C2CCC2)c1-c1ccc(F)cc1 [Compound 110, (S)-N-(4-cyclobutyl-5-(4-fluorophenyl)-1-methyl-1H-pyrazol-3-yl)-2,2-dimethylcyclopropane-1-carboxamide]	++ (“++” High Activity ≥ 0.7)
Cn1nc(NC(=O)CC2(O)CCCC2)c(C2CCC2)c1-c1ccc(F)cc1 [Compound 73, N-(4-cyclobutyl-5-(4-fluorophenyl)-1-methyl-1H-pyrazol-3-yl)-2-(1-hydroxycyclopentyl)acetamide]	++ (“++” High Activity ≥ 0.7)
